These results are taken from patent US10392373B2, “Oxazole derivatives that inhibit Syk” (AB Science, priority 2015, dated 2019).

In this assay the target is T1, SYK kinase (Homo sapiens, UniProt P43405).
T1 construct: SYK kinase was purified as a full length protein in a baculovirus system near homogeneity; made in house
Briefly: In vitro Syk inhibition assay (Kinase TK HTRF, Cisbio). The format is biochemical. The note with it: full length SYK purified from a baculovirus system; ATP at least twice the Km; room temperature; average of triplicate; read-out: IC50: Concentration inhibiting 50% of protein kinase. As for the experimental part:
Protocol Inhibition Assays.
SYK kinase was purified as a full length protein in a baculovirus system near homogeneity. All kinase assays were performed with the Kinase TK (tyrosine kinase) HTRF (Homogeneous Time Resolved Fluorescence) assay developed by Cisbio international. These assays were carried out at room temperature in 96-wells half-area white plates in a final volume of 25 μl of kinase buffer (10 mM MgCl2; 2 mM MnCl2; 50 mM Sodium-HEPES pH 7.8; BRIJ-35 0.01%, 1 μM substrate) containing ATP at a concentration of at least twice the Km for each enzyme and an appropriate amount of recombinant enzyme to ensure a linear reaction rate. Reactions were initiated upon introduction of the enzyme and terminated with the addition of one reaction volume (25 μl) of HTRF detection buffer. Plates were incubated for one hour at room temperature and the time resolved Fluorescence resonance energy transfer signal was measured in a Pherastar FS microplate reader (BMG Labtech). All data are the average of triplicate results with a standard deviation <10%.

Consider `Cc1ccnc(Nc2cc(CN3CCCC3)cc(-c3cnc(N4CCNC(=O)C4(C)C)o3)c2)n1` [Compound 045, 3,3-Dimethyl-4-{5-[3-(4-methyl-pyrimidin-2-ylamino)-5-pyrrolidin-1-ylmethyl-phenyl]-oxazol-2-yl}-piperazin-2-one], for which the IC50 lay in the range of 0.1 to 1 µM.
Turning to `CCC1C(=O)NCCN1c1ncc(-c2cccc(Nc3nccc(C(F)(F)F)n3)c2)o1` (stereo not drawn) [Compound 011, 3-Ethyl-4-{5-[3-((4-trifluoromethyl)-pyrimidin-2-ylamino)-phenyl]-oxazol-2-yl}-piperazin-2-one], the IC50 is not above 0.1 µM.
`CC1C(=O)NCCN1c1ncc(-c2cccc(Nc3nccc(C(F)(F)F)n3)c2)o1` (stereo not drawn) [Compound 009, 3-Methyl-4-{5-[3-((4-trifluoromethyl)-pyrimidin-2-ylamino)-phenyl]-oxazol-2-yl}-piperazin-2-one]: the IC50 is not above 0.1 µM.
In the case of `CC(C)c1ccnc(Nc2cccc(-c3cnc(N4CCNC(=O)C4C)o3)c2)n1` (stereo not drawn) [Compound 021, 4-{5-[3-(4-Isopropyl-pyrimidin-2-ylamino)-phenyl]-oxazol-2-yl}-3-methyl-piperazin-2-one], the IC50 is not above 0.1 µM.
Under `Cc1ccnc(Nc2cc(CN3CCOCC3)cc(-c3cnc(N4CCNC(=O)C4C)o3)c2)n1` (stereo not drawn) [Compound 014, 3-Methyl-4-{5-[3-(4-methyl-pyrimidin-2-ylamino)-5-morpholin-4-ylmethyl-phenyl]-oxazol-2-yl}-piperazin-2-one] stands 0.1 to 1 µM; under `CC(C)c1ccnc(Nc2cccc(-c3cnc(N4CCNC(=O)C4C(C)C)o3)c2)n1` (stereo not drawn) [Compound 036, 3-Isopropyl-4-{5-[3-(4-isopropyl-pyrimidin-2-ylamino)-phenyl]-oxazol-2-yl}-piperazin-2-one], not above 0.1 µM; under `COc1ccnc(Nc2cccc(-c3cnc(N4CCNC(=O)C4C)o3)c2)n1` (stereo not drawn) [Compound 013, 4-{5-[3-(4-Methoxy-pyrimidin-2-ylamino)-phenyl]-oxazol-2-yl}-3-methyl-piperazin-2-one], not above 0.1 µM.
For `COc1ccnc(Nc2cccc(-c3cnc(N4CCNC(=O)C4(C)C)o3)c2)n1` [Compound 026, 4-{5-[3-(4-Methoxy-pyrimidin-2-ylamino)-phenyl]-oxazol-2-yl}-3,3-dimethyl-piperazin-2-one], the IC50 is not above 0.1 µM.
As for `CC1(C)C(=O)NCCN1c1ncc(-c2cccc(Nc3nccc(C4CC4)n3)c2)o1` [Compound 042, 4-{5-[3-(4-Cyclopropyl-pyrimidin-2-ylamino)-phenyl]-oxazol-2-yl}-3,3-dimethyl-piperazin-2-one], the IC50 is not above 0.1 µM.
Under `CC(C)C1C(=O)NCCN1c1ncc(-c2cccc(Nc3nccc(N4CCOCC4)n3)c2)o1` (stereo not drawn) [Compound 033, 3-Isopropyl-4-{5-[3-(4-morpholin-4-yl-pyrimidin-2-ylamino)-phenyl]-oxazol-2-yl}-piperazin-2-one] stands 1 to 10 µM.
Consider `CC1(C)C(=O)NCCN1c1ncc(-c2cccc(Nc3nccc(N4CCCC4)n3)c2)o1` [Compound 032, 3,3-Dimethyl-4-{5-[3-(4-pyrrolidin-1-yl-pyrimidin-2-ylamino)-phenyl]-oxazol-2-yl}-piperazin-2-one], for which the IC50 is 1 to 10 µM.
On to `Cc1ccnc(Nc2cccc(-c3cnc(N4CCNC(=O)C4(C)C)o3)c2)n1` [Compound 002, 3,3-Dimethyl-4-{5-[3-(4-methyl-pyrimidin-2-ylamino)-phenyl]-oxazol-2-yl}-piperazin-2-one], for which the IC50 is not above 0.1 µM.
The value for `CC1C(=O)NCCN1c1ncc(-c2cc(CN3CCOCC3)cc(Nc3nccc(C(F)(F)F)n3)c2)o1` (stereo not drawn) [Compound 015, 3-Methyl-4-{5-[3-morpholin-4-ylmethyl-5-((4-trifluoromethyl)-pyrimidin-2-ylamino)-phenyl]-oxazol-2-yl}-piperazin-2-one] was not above 0.1 µM; that for `CCC1C(=O)NCCN1c1ncc(-c2cccc(Nc3nccc(C(C)C)n3)c2)o1` (stereo not drawn) [Compound 025, 3-Ethyl-4-{5-[3-(4-isopropyl-pyrimidin-2-ylamino)-phenyl]-oxazol-2-yl}-piperazin-2-one] was not above 0.1 µM.
Under `CC1(C)C(=O)NCCN1c1ncc(-c2cccc(Nc3nccc(N4CCOCC4)n3)c2)o1` [Compound 030, 3,3-Dimethyl-4-{5-[3-(4-morpholin-4-yl-pyrimidin-2-ylamino)-phenyl]-oxazol-2-yl}-piperazin-2-one] stands 0.1 to 1 µM; under `CCc1ccnc(Nc2cccc(-c3cnc(N4CCNC(=O)C4(C)C)o3)c2)n1` [Compound 037, 4-{5-[3-(4-Ethyl-pyrimidin-2-ylamino)-phenyl]-oxazol-2-yl}-3,3-dimethyl-piperazin-2-one], not above 0.1 µM.
With `Cc1ccnc(Nc2cccc(-c3cnc(N4CCNC(=O)C4CCO)o3)c2)n1` (stereo not drawn) [Compound 024, 3-(2-Hydroxy-ethyl)-4-{5-[3-(4-methyl-pyrimidin-2-ylamino)-phenyl]-oxazol-2-yl}-piperazin-2-one], the IC50 fell in the range of 0.1 to 1 µM.
Take `CC1C(=O)NCCN1c1ncc(-c2cccc(Nc3nccc(N4CCCC4)n3)c2)o1` (stereo not drawn) [Compound 028, 3-Methyl-4-{5-[3-(4-pyrrolidin-1-yl-pyrimidin-2-ylamino)-phenyl]-oxazol-2-yl}-piperazin-2-one]: the IC50 is 0.1 to 1 µM.
The value for `Cc1ccnc(Nc2cccc(-c3cnc(N4CCNC(=O)[C@@H]4C(C)C)o3)c2)n1` [Compound 039, (S)-3-Isopropyl-4-{5-[3-(4-methyl-pyrimidin-2-ylamino)-phenyl]-oxazol-2-yl}-piperazin-2-one] was 0.1 to 1 µM.
With `Cc1ccnc(Nc2cccc(-c3cnc(N4CCNC(=O)C4C(C)C)o3)c2)n1` (stereo not drawn) [Compound 003, 3-Isopropyl-4-{5-[3-(4-methyl-pyrimidin-2-ylamino)-phenyl]-oxazol-2-yl}-piperazin-2-one], the IC50 is not above 0.1 µM.
`CN1CCN(c2ccnc(Nc3cccc(-c4cnc(N5CCNC(=O)C5(C)C)o4)c3)n2)CC1` [Compound 031, 3,3-Dimethyl-4-(5-{3-[4-(4-methyl-piperazin-1-yl)-pyrimidin-2-ylamino]-phenyl}-oxazol-2-yl)-piperazin-2-one]: the IC50 lay in the range of 1 to 10 µM.
For `CC(C)C1C(=O)NCCN1c1ncc(-c2cccc(Nc3nccc(N4CCN(C)CC4)n3)c2)o1` (stereo not drawn) [Compound 035, 3-Isopropyl-4-(5-{3-[4-(4-methyl-piperazin-1-yl)-pyrimidin-2-ylamino]-phenyl}-oxazol-2-yl)-piperazin-2-one], the IC50 lay in the range of 1 to 10 µM.
With `CCCc1cnc(Nc2cccc(-c3cnc(N4CCNC(=O)C4C)o3)c2)nc1` (stereo not drawn) [Compound 006, 3-Methyl-4-{5-[3-(5-propyl-pyrimidin-2-ylamino)-phenyl]-oxazol-2-yl}-piperazin-2-one], the IC50 lay within 1 to 10 µM.
`CC1C(=O)NCCN1c1ncc(-c2cccc(Nc3nccc(C4CC4)n3)c2)o1` (stereo not drawn) [Compound 041, 4-{5-[3-(4-Cyclopropyl-pyrimidin-2-ylamino)-phenyl]-oxazol-2-yl}-3-methyl-piperazin-2-one]: the IC50 was not above 0.1 µM.
Under `CC(C)c1ccnc(Nc2cccc(-c3cnc(N4CCNC(=O)C4(C)C)o3)c2)n1` [Compound 023, 4-{5-[3-(4-Isopropyl-pyrimidin-2-ylamino)-phenyl]-oxazol-2-yl}-3,3-dimethyl-piperazin-2-one] stands not above 0.1 µM; under `CCc1cnc(Nc2cccc(-c3cnc(N4CCNC(=O)C4C)o3)c2)nc1` (stereo not drawn) [Compound 016, 4-{5-[3-(5-Ethyl-pyrimidin-2-ylamino)-phenyl]-oxazol-2-yl}-3-methyl-piperazin-2-one], 1 to 10 µM; under `Cc1ccnc(Nc2cc(CN(C)C)cc(-c3cnc(N4CCNC(=O)C4(C)C)o3)c2)n1` [Compound 044, 4-{5-[3-Dimethylaminomethyl-5-(4-methyl-pyrimidin-2-ylamino)-phenyl]-oxazol-2-yl}-3,3-dimethyl-piperazin-2-one], 0.1 to 1 µM.
Turning to `CC1C(=O)NCCN1c1ncc(-c2cccc(Nc3nccc(N4CCN(C)CC4)n3)c2)o1` (stereo not drawn) [Compound 029, 3-Methyl-4-(5-{3-[4-(4-methyl-piperazin-1-yl)-pyrimidin-2-ylamino]-phenyl}-oxazol-2-yl)-piperazin-2-one], the IC50 fell in the range of 1 to 10 µM.
Under `CCc1ccnc(Nc2cccc(-c3cnc(N4CCNC(=O)C4C(C)C)o3)c2)n1` (stereo not drawn) [Compound 038, 4-{5-[3-(4-Ethyl-pyrimidin-2-ylamino)-phenyl]-oxazol-2-yl}-3-isopropyl-piperazin-2-one] stands not above 0.1 µM; under `CC(C)C1C(=O)NCCN1c1ncc(-c2cccc(Nc3nccc(C4CC4)n3)c2)o1` (stereo not drawn) [Compound 043, 4-{5-[3-(4-Cyclopropyl-pyrimidin-2-ylamino)-phenyl]-oxazol-2-yl}-3-isopropyl-piperazin-2-one], not above 0.1 µM.
Under `Cc1ccnc(Nc2cccc(-c3cnc(N4CCNC(=O)[C@H]4C)o3)c2)n1` [Compound 007, (R)-3-Methyl-4-{5-[3-(4-methyl-pyrimidin-2-ylamino)-phenyl]-oxazol-2-yl}-piperazin-2-one] stands not above 0.1 µM.
For `CC1C(=O)NCCN1c1ncc(-c2cccc(Nc3nccc(-c4cccs4)n3)c2)o1` (stereo not drawn) [Compound 010, 3-Methyl-4-{5-[3-(4-thiophen-2-yl-pyrimidin-2-ylamino)-phenyl]-oxazol-2-yl}-piperazin-2-one], the IC50 was not above 0.1 µM.
For the compound `Cc1ccnc(Nc2cccc(-c3cnc(N4CCNC(=O)C4C)o3)c2)n1` (stereo not drawn) [Compound 001, 3-Methyl-4-{5-[3-(4-methyl-pyrimidin-2-ylamino)-phenyl]-oxazol-2-yl}-piperazin-2-one], the IC50 is not above 0.1 µM.
